# d = 2'-deoxy (DNA); r = 2'-OH (RNA)
# Legend:
# DcR3 = assay: siRNA knockdown of DcR3 expression, immunoblot of whole cell lysates; format: cell-based, human; details: P (1/2) EBV cells, 100 nM siRNA, versus control siRNA; whole cell lysates 24, 48 and 72 hours post nucleofection
# Method: The expression of DcR3 was reduced using siRNAs in the EBV transformed cell lines derived from control and IBD patients harboring risk variants in TNFRSF6B (A allele). Briefly, 3×10^6 cells were transfected with 100 nM DcR3 siRNA duplexes or with DcR3 non-silence control using Amaxa Nucleofector Kit and program T-20. The siRNA-transfected cells were incubated for 48 h after nucleofection and the degree of knockdown relative to introduction of control siRNA was confirmed by western blot using DcR3 mouse monoclonal antibody (Abgent) on whole cell lysates. The 21-mer siRNAs were synthesized by DHARMACON. The DcR3 siRNA sequences were as follows: sense sequence, 5′-GCC AGG CUC UUC CUC CCA UdTdT-3′ (SEQ ID NO: 1); antisense sequence, 5′-AUG GGA GGA AGA GCC UGG CdTdT-3′ (SEQ ID NO: 2). The non-silence control siRNA sequences were as follows: sense sequence, 5′-GCC CGC UUU CCC UCA GCA UdTdT-3′ (SEQ ID NO: 3); antisense sequence, 5′-AUG CUG AGG GAA AGC GGG C-3 (SEQ ID NO: 4).
# (§1) Post 24, 48 and 72 hours of nucleofection, cells were harvested and whole cell lysates were evaluated for DcR3 expression by immunoblot analysis. […] Nucleofection had no adverse effect on cell viability (data not shown). In addition, cells nucleofected with control and DcR3 siRNA post 24 h were treated with sFasL and analysed for cell death using MTT Proliferation assay.
# [1] = system: patient EBV cells with heterozygous risk allele (1/2); assay: MTT proliferation assay of nucleofected cells treated with sFasL; format: cell-based, human; details: cells treated with sFasL 24 h post nucleofection; compared with control siRNA (CsiRNA) plus sFasL
# Method: The effect of DcR3 on cell proliferation was measured by the colorimetric MTT assay using an MTT (Microtiter-tetrazolium, Sigma, USA) based assay. Briefly, the cells (5,000/ml) were incubated in triplicate in a 96-well plate (Costar, Cambridge, Mass., USA) in a final volume of 0.2 ml for the indicated times. Thereafter, 20 μl of MTT solution (5 g/L) was added to each well and then incubated for 12 h. After centrifugation, the supernatant was removed from each well. The colored formazan crystal produced from MTT was dissolved in 0.15 ml of DMSO and then the optical density (OD) value was measured on a microplate reader. Each experiment was performed in duplicate and repeated five times.
# as §1
# [2] = system: canonical pathway in MM cell lines and tumors; details: cited from earlier work
Molecule,DcR3 expression post nucleofection (DcR3),cell growth (MTT) after sFasL treatment [1],off-target effect on canonical NF-κB pathway [2]
"DcR3 siRNA: 21-mer siRNA duplex, sense 5′-GCC AGG CUC UUC CUC CCA UdTdT-3′, antisense 5′-AUG GGA GGA AGA GCC UGG CdTdT-3′, synthesized by DHARMACON (sense GCCAGGCUCUUCCUCCCAUTT; antisense AUGGGAGGAAGAGCCUGGCTT; sugars from the 5' end r19 d2, backbone not given here)",reduced DcR3 levels first seen at 24 h and maintained for at least 48 h,decrease in cell growth,
"CC(C)C[C@H](NC(=O)[C@H](Cc1ccccc1)NC(=O)c1cnccn1)B(O)O [Velcade bortezomib, bortezomib]",,,induce up-regulation of the canonical pathway

# Source: patent US10407725B2, “Methods of treating autoimmune conditions in patients with genetic variations in DcR3 or in a DcR3 network gene” (The Children's Hospital of Philadelphia, priority 2015, dated 2019)
